Where two headings read alike, the source gives them in different places.
Key:
[1] = system: L858R/T790M EGFR-bearing NSCLC cells; settings: L858R/T790M EGFR-bearing NSCLC cells ref 15; cited from earlier work
H1975 cells [2] = test: Annexin V apoptosis assay; assay type: cell-based; settings: for proportion of apoptotic cells: 48 h; for induction of apoptosis: H1975, 48 h, result in words
Procedure: Cells were grown on a 60-mm tissue culture dish at a density of about 5.0 × 10^5 cells/well. […] At the end of the treatment, both floating and attached cells were collected and washed twice with ice-cold phosphate buffer solution. The extent of apoptosis was determined by using the APC annexin-V apoptosis kit (BD Bioscience, San Jose, CA, USA) according to the manufacturer’s instructions. Cells positive for both annexin V and 7-AAD were considered apoptotic.

BEAS-2B cells = test: Cytotoxicity in normal lung epithelial cell line BEAS-2B; assay type: cell-based, human; settings: for reduced cell viability: BEAS-2B
Source text: (§1) Two NSCLC cell lines carrying specific EGFR mutations (HCC827: EGFR sensitizing E746_A750 deletion; H1975: resistance-causing EGFR T790M secondary mutation) were purchased from American Type Culture Collection (ATCC; Manassas, VA, USA). A normal human lung epithelial cell line BEAS-2B was also obtained from ATCC to investigate the potential toxic effect of the tested drugs. HCC827, H1975, and BEAS-2B cells were maintained in RPMI1640 medium supplemented with 10% fetal bovine serum, 100-U/mL streptomycin sulfate, and 100-U/mL penicillin G sulfate, and incubated at 37°C in 5% CO2.
(§2) Growth inhibitory effects of various drug candidates on the cell lines were evaluated by the sulforhodamine B assay ([32]). Cells were seeded into 96-well tissue culture plates in 100 µL at a plating density of 3,000–5,000 cells/well, and allowed to incubate overnight. The cells were then treated with various drug candidates at a range of concentrations and allowed to incubate at 37°C in 5% CO2 for 72 h. Each drug concentration was tested in quadruplicate and controls were tested in replicates of eight.

H1975 cells [3] = test: Growth inhibition, sulforhodamine B assay, H1975; assay type: cell-based; settings: for anticancer activity / effect on cell proliferation: H1975, result in words
Source text: as §1, §2

EGFR L858R = EGFR L858R (Homo sapiens, UniProt P00533, L858R); test: Cell-free kinase inhibition assay (ADP-Glo), EGFR L858R; assay type: biochemical; settings: recombinant EGFR L858R, poly-EY substrate
EGFR L858R, sequence (P00533 25-1210 L858R): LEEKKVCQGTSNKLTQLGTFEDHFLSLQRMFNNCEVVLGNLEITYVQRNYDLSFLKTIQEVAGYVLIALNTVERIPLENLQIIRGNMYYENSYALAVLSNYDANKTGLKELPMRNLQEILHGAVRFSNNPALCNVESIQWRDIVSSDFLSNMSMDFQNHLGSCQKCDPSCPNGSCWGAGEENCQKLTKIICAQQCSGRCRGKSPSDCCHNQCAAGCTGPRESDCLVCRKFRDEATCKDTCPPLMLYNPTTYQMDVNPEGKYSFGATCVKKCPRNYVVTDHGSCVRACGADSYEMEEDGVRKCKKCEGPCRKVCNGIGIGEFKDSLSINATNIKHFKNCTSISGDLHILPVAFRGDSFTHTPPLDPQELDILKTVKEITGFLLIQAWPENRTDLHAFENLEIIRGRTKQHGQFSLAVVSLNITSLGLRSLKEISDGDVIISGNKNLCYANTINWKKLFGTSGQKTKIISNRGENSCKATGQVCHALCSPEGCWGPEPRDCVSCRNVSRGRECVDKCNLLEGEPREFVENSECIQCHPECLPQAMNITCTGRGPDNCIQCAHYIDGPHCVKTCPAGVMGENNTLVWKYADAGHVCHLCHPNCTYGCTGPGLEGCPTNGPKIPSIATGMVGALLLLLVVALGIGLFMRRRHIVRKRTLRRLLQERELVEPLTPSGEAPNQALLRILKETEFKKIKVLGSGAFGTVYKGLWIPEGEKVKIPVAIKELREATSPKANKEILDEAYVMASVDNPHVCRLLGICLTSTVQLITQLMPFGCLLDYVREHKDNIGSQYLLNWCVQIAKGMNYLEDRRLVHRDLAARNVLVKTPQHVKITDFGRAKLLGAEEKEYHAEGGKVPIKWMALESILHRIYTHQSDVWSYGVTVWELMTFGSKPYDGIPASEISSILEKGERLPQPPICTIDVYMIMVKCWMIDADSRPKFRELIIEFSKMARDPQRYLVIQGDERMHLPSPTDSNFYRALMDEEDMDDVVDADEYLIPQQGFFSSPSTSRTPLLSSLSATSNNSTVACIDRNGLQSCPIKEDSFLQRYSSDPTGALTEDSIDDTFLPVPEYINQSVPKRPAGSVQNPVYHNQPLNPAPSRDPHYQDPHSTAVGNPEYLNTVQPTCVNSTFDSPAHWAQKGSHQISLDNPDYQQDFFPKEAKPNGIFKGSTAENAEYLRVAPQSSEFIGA
Procedure: (§3) Inhibition of tyrosine kinase signaling by the drug candidates identified was examined in a cell-free system by assessing the phosphorylation of a poly-EY (4:1 Glu, Tyr) peptide substrate (for EGFR) with recombinant kinases EGFR^wt, EGFR^L858R, or EGFR^L858R+T790M as described previously ([34]). Inhibition of the recombinant kinases by the drug candidates was evaluated by using the ADP-Glo Kinase assay kit according to the manufacturer’s instruction (Promega, Madison, WI, USA). […] Also, 5 µL of ADP-Glo reagent was then added and incubation continued at room temperature for another 40 min. Afterward, 10 µL of kinase detection reagent was added and the mixture was allowed to incubate at room temperature for 30 min, before the measurement of luminescence by GloMax 20/20 Luminometer (Promega).

EGFR L858R/T790M = EGFR L858R/T790M (Homo sapiens, UniProt P00533, L858R/T790M); test: Cell-free kinase inhibition assay (ADP-Glo), EGFR L858R/T790M; assay type: biochemical; settings: for Fold difference from L858R value: L858R/T790M IC50 versus L858R IC50; for IC50: recombinant EGFR L858R/T790M, poly-EY substrate
EGFR L858R/T790M, sequence (P00533 25-1210 T790M/L858R): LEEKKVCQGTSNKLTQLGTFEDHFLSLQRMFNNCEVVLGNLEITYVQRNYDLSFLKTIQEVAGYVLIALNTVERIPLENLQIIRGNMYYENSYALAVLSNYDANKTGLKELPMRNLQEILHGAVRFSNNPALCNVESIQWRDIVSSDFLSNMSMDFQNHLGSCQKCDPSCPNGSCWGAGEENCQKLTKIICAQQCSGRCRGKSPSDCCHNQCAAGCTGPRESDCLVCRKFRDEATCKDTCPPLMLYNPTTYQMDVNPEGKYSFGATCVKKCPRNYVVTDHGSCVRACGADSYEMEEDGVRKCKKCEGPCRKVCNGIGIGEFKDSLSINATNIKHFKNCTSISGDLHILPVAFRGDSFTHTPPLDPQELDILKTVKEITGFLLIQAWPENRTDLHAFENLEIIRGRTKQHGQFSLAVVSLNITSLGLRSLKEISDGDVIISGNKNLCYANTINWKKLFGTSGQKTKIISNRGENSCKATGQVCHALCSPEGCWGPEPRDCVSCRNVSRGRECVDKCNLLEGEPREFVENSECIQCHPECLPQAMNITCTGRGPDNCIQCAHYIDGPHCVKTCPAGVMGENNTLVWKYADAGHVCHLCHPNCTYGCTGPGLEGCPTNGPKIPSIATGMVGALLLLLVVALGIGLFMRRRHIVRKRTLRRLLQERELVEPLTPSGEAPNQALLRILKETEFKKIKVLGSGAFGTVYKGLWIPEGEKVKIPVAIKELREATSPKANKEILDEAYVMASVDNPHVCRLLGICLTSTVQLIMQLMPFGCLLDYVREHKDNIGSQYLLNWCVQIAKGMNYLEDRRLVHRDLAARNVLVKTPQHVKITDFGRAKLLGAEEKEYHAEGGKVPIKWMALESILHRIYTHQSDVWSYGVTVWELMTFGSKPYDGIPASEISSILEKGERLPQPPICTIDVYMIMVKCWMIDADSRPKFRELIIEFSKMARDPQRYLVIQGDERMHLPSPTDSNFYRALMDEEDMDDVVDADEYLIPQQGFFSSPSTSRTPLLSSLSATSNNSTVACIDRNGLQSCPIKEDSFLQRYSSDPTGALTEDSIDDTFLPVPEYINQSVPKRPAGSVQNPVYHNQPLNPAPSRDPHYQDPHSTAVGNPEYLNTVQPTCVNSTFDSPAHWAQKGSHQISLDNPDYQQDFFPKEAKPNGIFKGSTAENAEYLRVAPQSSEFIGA
Procedure: as §3

HCC827 cells = test: Growth inhibition, sulforhodamine B assay, HCC827; assay type: cell-based; settings: for anticancer activity / effect on cell proliferation: HCC827, result in words; for IC50: HCC827 (EGFR E746_A750 deletion), 72 h
Source text: as §1, §2

EGFR wild type [4] = test: Cell-free kinase inhibition assay (ADP-Glo), EGFR wild type; assay type: biochemical; settings: wild type IC50 versus L858R IC50
Procedure: as §3

EGFR wild type [5] = target: EGFR wild type (Homo sapiens, UniProt P00533); test: as above; assay type: biochemical; settings: recombinant EGFR wild type, poly-EY substrate
EGFR wild type (Homo sapiens, UniProt P00533), sequence (P00533 25-1210): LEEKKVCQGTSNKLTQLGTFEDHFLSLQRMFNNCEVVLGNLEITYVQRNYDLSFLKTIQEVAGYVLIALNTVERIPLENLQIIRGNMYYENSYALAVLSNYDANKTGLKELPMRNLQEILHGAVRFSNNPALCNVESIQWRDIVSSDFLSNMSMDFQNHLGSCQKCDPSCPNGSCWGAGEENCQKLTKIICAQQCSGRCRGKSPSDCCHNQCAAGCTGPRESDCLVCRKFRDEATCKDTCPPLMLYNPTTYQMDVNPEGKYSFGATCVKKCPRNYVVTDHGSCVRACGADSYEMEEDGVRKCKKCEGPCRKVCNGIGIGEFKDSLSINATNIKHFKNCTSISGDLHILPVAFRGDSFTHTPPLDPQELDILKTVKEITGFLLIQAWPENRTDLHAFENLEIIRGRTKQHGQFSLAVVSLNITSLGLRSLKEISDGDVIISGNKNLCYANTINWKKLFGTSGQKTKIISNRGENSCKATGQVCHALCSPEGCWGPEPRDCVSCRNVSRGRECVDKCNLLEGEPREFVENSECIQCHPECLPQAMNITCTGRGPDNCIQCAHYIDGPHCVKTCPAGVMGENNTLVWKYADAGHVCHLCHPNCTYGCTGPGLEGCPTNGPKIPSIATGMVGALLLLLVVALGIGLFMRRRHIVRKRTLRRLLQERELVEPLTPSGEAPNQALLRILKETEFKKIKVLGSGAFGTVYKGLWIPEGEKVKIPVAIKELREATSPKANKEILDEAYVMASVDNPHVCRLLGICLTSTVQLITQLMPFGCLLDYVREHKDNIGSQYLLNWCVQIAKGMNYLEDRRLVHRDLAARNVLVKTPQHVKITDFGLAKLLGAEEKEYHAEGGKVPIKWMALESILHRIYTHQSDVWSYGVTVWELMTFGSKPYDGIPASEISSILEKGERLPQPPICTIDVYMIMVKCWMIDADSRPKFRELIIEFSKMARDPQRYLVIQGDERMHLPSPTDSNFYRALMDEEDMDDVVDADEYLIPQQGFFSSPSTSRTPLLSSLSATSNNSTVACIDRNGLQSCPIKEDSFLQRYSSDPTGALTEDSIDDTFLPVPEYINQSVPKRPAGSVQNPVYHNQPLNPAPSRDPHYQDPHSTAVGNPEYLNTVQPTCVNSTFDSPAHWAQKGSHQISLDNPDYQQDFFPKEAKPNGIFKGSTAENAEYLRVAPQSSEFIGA
Procedure: as §3

EGFR phosphorylation = test: Western blot, EGFR autophosphorylation in HCC827 and H1975 cells; assay type: cell-based; settings: H1975 compared with HCC827, 4 h, result in words
Procedure: (§4) Non-small cell lung cancer (HCC827, H1975) cell lines were treated with the tested drug candidates for the designated time (4 h). The cells were then harvested for Western blot analysis in lysis buffer (0.05-M HEPES pH 7.4, 0.15-M NaCl, 2-mM EDTA, 10% v/v glycerol, 1% v/v Triton X-100) supplemented with protease and phosphatase inhibitor cocktail (Thermo Scientific). Whole cell lysates were separated by SDS-PAGE and subjected to immunoblot analysis with the respective antibodies [total EGFR, phosphor-EGFR (Y845), phosphor-ERK1/2 (Thr177/Thr160), ERK1/2, phosphor-Akt, total Akt, and GAPDH (Santa Cruz Biotechnology, Santa Cruz, CA, USA)]. Primary antibody incubation was carried out at 4°C overnight in 5% bovine serum albumin/phosphate-buffered saline-Tween 20. Afterward, the membranes were incubated with HRP-conjugated donkey anti-mouse/anti-rabbit secondary antibody at room temperature for 1 h, and developed using the WesternBright Quantum chemiluminescence detection system (Advansta Corporation, Menlo Park, CA, USA). Anti-GAPDH antibody was used as the loading control (Santa Cruz Biotech, Santa Cruz, CA, USA). Digital chemiluminescence images were captured and quantified by using the FluorChem Q Imaging System (Alpha Innotech Corporation, Santa Clara, CA, USA).

[6] = system: phosphorylation of EGFR, Akt, and ERK; test: Western blot, drug combination, phosphorylation of EGFR, Akt and ERK in H1975 cells; assay type: cell-based; settings: H1975, gefitinib 10 µM, indacaterol 10 µM, alone or concomitant, 4 h, result in words
PUMA = test: Western blot, induction of PUMA in HCC827 and H1975 cells; assay type: cell-based; settings: H1975 compared with HCC827, result in words
[7] = system: phosphorylation of Akt and ERK; test: Western blot, phosphorylation of Akt and ERK in HCC827 and H1975 cells; assay type: cell-based; settings: H1975 compared with HCC827, 4 h, result in words
Procedure: as §4

[8] = highest concentration tested 100 µM
[9] = H1975 (EGFR L858R/T790M), 72 h, read-out: IC50

SMILES	IC50 (EGFR L858R)	induction of apoptosis (H1975 cells [2])	Fold difference from L858R value (EGFR L858R/T790M)	IC50 (EGFR L858R/T790M)	anticancer activity / effect on cell proliferation (HCC827 cells)	Fold difference from L858R value (EGFR wild type [4])	IC50 (EGFR wild type [5])	inhibition of EGFR phosphorylation (EGFR phosphorylation)	anticancer activity / effect on cell proliferation (H1975 cells [3])	further results
C=CC(=O)Nc1cc(Nc2nccc(-c3cn(C)c4ccccc34)n2)c(OC)cc1N(C)CCN(C)C [osimertinib]										IC50 [1]: ~11 nM
COc1cc2ncnc(Nc3ccc(F)c(Cl)c3)c2cc1OCCCN1CCOCC1 [Gefitinib]										proportion of apoptotic cells (H1975 cells [2]; H1975, gefitinib alone 4 µM): 6.9 ± 1.2%
C#Cc1cccc(Nc2ncnc3cc(OCCOC)c(OCCOC)cc23)c1 [Erlotinib]										IC50 (BEAS-2B cells; Homo sapiens, BEAS-2B normal lung epithelial cells): ~20000 nM; IC50 (H1975 cells [3]; Homo sapiens, NCI-H1975, 72 h): 8200 ± 2100 nM
OCCN1CCN(CC/C=C2/c3ccccc3Sc3ccc(C(F)(F)F)cc32)CC1 [Cis-flupenthixol]	83 ± 5.2 nM	induce apoptosis in a concentration-dependent manner	1.1	94 ± 11.2 nM	exhibit anticancer activity	2.2	186 ± 21.5 nM	similarly in both H1975 and HCC827 cells	exhibit anticancer activity	reduced cell viability (BEAS-2B cells; highest concentration tested 20 µM): less than 20%
CCCc1nn(C)c2c(=O)[nH]c(-c3cc(S(=O)(=O)N4CCN(C)CC4)ccc3OCC)nc12 [Sildenafil]					negative				negative	
CCc1cc2c(cc1CC)CC(NC[C@H](O)c1ccc(O)c3[nH]c(=O)ccc13)C2 [Indacaterol]	232 ± 36.5 nM	induce apoptosis in a concentration-dependent manner	0.4	103 ± 14 nM	exhibit anticancer activity	3.4	792 ± 43.2 nM	more potently in H1975 than in HCC827 cells	exhibit anticancer activity	reduced cell viability (BEAS-2B cells; [8]): less than 20%; inhibition of phosphorylation of EGFR, Akt, and ERK [6]: mildly; proportion of apoptotic cells (H1975 cells [2]; H1975, indacaterol alone 5 µM): 9.7 ± 1.8%; induction of PUMA (PUMA): more pronounced induction of PUMA in H1975 cells than in HCC827 cells; IC50 (HCC827 cells; Homo sapiens): 41500 ± 3900 nM; inhibition of phosphorylation of Akt and ERK [7]: more remarkably in H1975 than in HCC827; IC50 (H1975 cells [3]; [9]): ~14000 nM; IC50 (H1975 cells [3]; Homo sapiens, NCI-H1975, 72 h, H1975 (EGFR L858R/T790M), 72 h, read-out: IC50): 14300 ± 2200 nM
O=C(c1ccc(F)cc1)C1CCN(CCn2c(=O)[nH]c3ccccc3c2=O)CC1 [Ketanserin]					negative				negative	
Cc1ccc([C@@H]2O[C@H](CO)[C@@H](O)[C@H](O)[C@H]2O)cc1Cc1ccc(-c2ccc(F)cc2)s1 [Canagliflozin]	368 ± 29.6 nM	induce apoptosis in a concentration-dependent manner	0.7	261 ± 24.4 nM	exhibit anticancer activity	2.2	795 ± 49.6 nM	more potently in H1975 than in HCC827 cells	exhibit anticancer activity	reduced cell viability (BEAS-2B cells; [8]): less than 20%; induction of PUMA (PUMA): more pronounced induction of PUMA in H1975 cells than in HCC827 cells; IC50 (HCC827 cells): 45400 ± 2900 nM; inhibition of phosphorylation of Akt and ERK [7]: more remarkably in H1975 than in HCC827; IC50 (H1975 cells [3]; [9]): 25500 ± 3100 nM

From article PMC5712561 (Frontiers in Oncology, 2017)
